ChEMBL document CHEMBL1122538, “Functional group contributions to drug-receptor interactions” (J Med Chem, 1984)

Assay: Binding energy by using the equation deltaG obsd = -RT ln KD
Assay type: ADME

With NCCCC(=O)O [GAMMA-AMINOBUTYRIC ACID] as the molecule, how does the Binding energy read?
The Binding energy was 10.9 kcal/mol.

For N=C(N)N/N=C/c1c(Cl)cccc1Cl [GUANABENZ], which Binding energy is on record?
The Binding energy was 12.3 kcal/mol.

For N=C(N)NC(=O)Cc1c(Cl)cccc1Cl [GUANFACINE], which Binding energy is on record?
The Binding energy was 11.9 kcal/mol.

Which Binding energy does the source give for O=C(CCCN1CCC(O)(c2ccc(Cl)cc2)CC1)c1ccc(F)cc1 [HALOPERIDOL] here?
The Binding energy was 12.3 kcal/mol.

Which Binding energy does the source give for CC(C)Cc1ccc(C(C)C(=O)O)cc1 (stereo not drawn) [IBUPROFEN] here?
Its Binding energy is 8.3 kcal/mol.

For O=C(NC1CCN(CCc2c[nH]c3ccccc23)CC1)c1ccccc1 [INDORAMIN], which Binding energy is on record?
The Binding energy was 11.5 kcal/mol.

Which Binding energy does the source give for CC[C@H](C)[C@H](N)C(=O)O [ISOLEUCINE] here?
Its Binding energy is 7.1 kcal/mol.

With O=C(c1ccc(F)cc1)C1CCN(CCn2c(=O)[nH]c3ccccc3c2=O)CC1 [KETANSERIN] as the molecule, how does the Binding energy read?
The Binding energy was 12.8 kcal/mol.

For C[C@H]1[C@H]2C(=O)c3ccc(O)cc3[C@]1(C)CCN2CC1CC1 [KETAZOCINE], which Binding energy is on record?
Its Binding energy is 11.4 kcal/mol.

Which Binding energy does the source give for CCC(=O)C1(c2cccc(O)c2)CCN(C)CC1 [KETOBEMIDONE] here?
Its Binding energy is 10.8 kcal/mol.

Which Binding energy does the source give for N[C@@H](Cc1cc(I)c(Oc2cc(I)c(O)c(I)c2)c(I)c1)C(=O)O [LEVOTHYROXINE] here?
The Binding energy was 10.3 kcal/mol.

With Cl[C@H]1[C@H](Cl)[C@@H](Cl)[C@@H](Cl)[C@H](Cl)[C@H]1Cl [LINDANE] as the molecule, how does the Binding energy read?
The Binding energy was 6.1 kcal/mol.

With CC(Oc1c(Cl)cccc1Cl)C1=NCCN1 (stereo not drawn) [LOFEXIDINE] as the molecule, how does the Binding energy read?
Its Binding energy is 11.8 kcal/mol.

With O=C1Nc2ccc(Cl)cc2C(c2ccccc2Cl)=NC1O (stereo not drawn) [LORAZEPAM] as the molecule, how does the Binding energy read?
Its Binding energy is 11.6 kcal/mol.

For CCN(CC)C(=O)[C@@H]1C=C2c3cccc4[nH]cc(c34)C[C@H]2N(C)C1 [LYSERGIDE], which Binding energy is on record?
The Binding energy was 12.7 kcal/mol.

With CC(=O)O[C@]1(C(C)=O)CC[C@H]2[C@@H]3C[C@H](C)C4=CC(=O)CC[C@]4(C)[C@H]3CC[C@@]21C [MEDROXYPROGESTERONE ACETATE] as the molecule, how does the Binding energy read?
Its Binding energy is 10.2 kcal/mol.

With CCC1(c2ccccc2)C(=O)NC(=O)N(C)C1=O (stereo not drawn) [MEPHOBARBITAL] as the molecule, how does the Binding energy read?
The Binding energy was 7.3 kcal/mol.

For COc1cc(CCN)cc(OC)c1OC [MESCALINE], which Binding energy is on record?
The Binding energy was 7.1 kcal/mol.

Which Binding energy does the source give for CN1C[C@H](CNC(=O)OCc2ccccc2)C[C@@H]2c3cccc4c3c(cn4C)C[C@H]21 [METERGOLINE] here?
Its Binding energy is 13 kcal/mol.

For CCC(=O)C(CC(C)N(C)C)(c1ccccc1)c1ccccc1 (stereo not drawn) [METHADONE], which Binding energy is on record?
The Binding energy was 11.8 kcal/mol.

With CCC1(CC)C(=O)NC(=O)N(C)C1=O [METHARBITAL] as the molecule, how does the Binding energy read?
Its Binding energy is 6.8 kcal/mol.

Which Binding energy does the source give for CN(Cc1cnc2nc(N)nc(N)c2n1)c1ccc(C(=O)N[C@@H](CCC(=O)O)C(=O)O)cc1 [METHOTREXATE] here?
Its Binding energy is 12.9 kcal/mol.

Which Binding energy does the source give for CC[C@@H](CO)NC(=O)[C@@H]1C=C2c3cccc4c3c(cn4C)C[C@H]2N(C)C1 [METHYSERGIDE] here?
The Binding energy was 12.3 kcal/mol.

With Cc1nc(N)nc(N)c1-c1ccc(Cl)c(Cl)c1 [METOPRINE] as the molecule, how does the Binding energy read?
Its Binding energy is 12.3 kcal/mol.

Which Binding energy does the source give for CN1CCN2c3ccccc3Cc3ccccc3C2C1 (stereo not drawn) [MIANSERIN] here?
Its Binding energy is 12.5 kcal/mol.

For NCc1cc(=O)[nH]o1 [MUSCIMOL], which Binding energy is on record?
Its Binding energy is 11.9 kcal/mol.

Which Binding energy does the source give for c1ccc2c(CC3=NCCN3)cccc2c1 [NAPHAZOLINE] here?
Its Binding energy is 11.9 kcal/mol.

With COc1ccc2cc([C@H](C)C(=O)O)ccc2c1 [NAPROXEN] as the molecule, how does the Binding energy read?
Its Binding energy is 8.5 kcal/mol.

Which Binding energy does the source give for CN1CCC[C@H]1c1cccnc1 [NICOTINE] here?
The Binding energy was 11.2 kcal/mol.

Which Binding energy does the source give for CNCCC(Oc1ccccc1OC)c1ccccc1 (stereo not drawn) [NISOXETINE] here?
The Binding energy was 11.5 kcal/mol.

Which Binding energy does the source give for CN1Cc2c(N)cccc2C(c2ccccc2)C1 (stereo not drawn) [NOMIFENSINE] here?
Its Binding energy is 8.8 kcal/mol.

For NC[C@H](O)c1ccc(O)c(O)c1 [NOREPINEPHRINE], which Binding energy is on record?
The Binding energy was 12.1 kcal/mol.

For C[C@@H]1O[C@@H](O[C@H]2C[C@@H](O)[C@]3(CO)[C@H]4[C@H](O)C[C@]5(C)[C@@H](C6=CC(=O)OC6)CC[C@]5(O)[C@@H]4CC[C@]3(O)C2)[C@H](O)[C@H](O)[C@H]1O [OUABAIN], which Binding energy is on record?
The Binding energy was 11.5 kcal/mol.

For O=C(O)C(=O)O [OXALIC ACID], which Binding energy is on record?
The Binding energy was 7.8 kcal/mol.

Which Binding energy does the source give for O=C1CCCN1CC#CCN1CCCC1 [OXOTREMORINE] here?
Its Binding energy is 11.7 kcal/mol.

With Cc1cc(C(C)(C)C)c(O)c(C)c1CC1=NCCN1 [OXYMETAZOLINE] as the molecule, how does the Binding energy read?
Its Binding energy is 12.2 kcal/mol.

Which Binding energy does the source give for O=c1[nH]c(=O)c2c[nH]nc2[nH]1 [OXYPURINOL] here?
Its Binding energy is 12.6 kcal/mol.

Which Binding energy does the source give for OC1(c2ccc(Cl)c(C(F)(F)F)c2)CCN(CCCC(c2ccc(F)cc2)c2ccc(F)cc2)CC1 [PENFLURIDOL] here?
The Binding energy was 9.9 kcal/mol.

Which Binding energy does the source give for NCCc1ccccc1 [PHENETHYLAMINE] here?
Its Binding energy is 5.5 kcal/mol.

For Oc1ccccc1 [PHENOL], which Binding energy is on record?
Its Binding energy is 2.7 kcal/mol.

For Cc1ccc(N(CC2=NCCN2)c2cccc(O)c2)cc1 [PHENTOLAMINE], which Binding energy is on record?
Its Binding energy is 11.9 kcal/mol.

With O=C(O)CCc1ccccc1 [PHENYL PROPIONIC ACID] as the molecule, how does the Binding energy read?
Its Binding energy is 5.5 kcal/mol.

For CCCCC1C(=O)N(c2ccccc2)N(c2ccccc2)C1=O [PHENYLBUTAZONE], which Binding energy is on record?
The Binding energy was 7.3 kcal/mol.

With O=C1NC(=O)C(c2ccccc2)(c2ccccc2)N1 [PHENYTOIN] as the molecule, how does the Binding energy read?
The Binding energy was 11.2 kcal/mol.

For O=C(O)COP(=O)(O)O [PHOSPHOGLYCOLIC ACID], which Binding energy is on record?
The Binding energy was 8.7 kcal/mol.

Which Binding energy does the source give for O=P(O)(O)O [PHOSPHORIC ACID] here?
The Binding energy was 7.7 kcal/mol.

For C=C(C)[C@@H]1[C@H]2OC(=O)[C@@H]1[C@]1(O)C[C@H]3O[C@]34C(=O)O[C@H]2[C@]14C [PICROTOXININ], which Binding energy is on record?
Its Binding energy is 8.7 kcal/mol.

With CC[C@@H]1C(=O)OC[C@@H]1Cc1cncn1C [PILOCARPINE] as the molecule, how does the Binding energy read?
The Binding energy was 10.1 kcal/mol.

With O=c1[nH]c2ccccc2n1C1CCN(CCCC(c2ccc(F)cc2)c2ccc(F)cc2)CC1 [PIMOZIDE] as the molecule, how does the Binding energy read?
Its Binding energy is 12.8 kcal/mol.

Which Binding energy does the source give for NC(=O)C1(N2CCCCC2)CCN(CCCC(=O)c2ccc(F)cc2)CC1 [PIPAMPERONE] here?
The Binding energy was 12.4 kcal/mol.

With c1ccc2c(c1)OCC(CN1CCCCC1)O2 (stereo not drawn) [PIPEROXAN] as the molecule, how does the Binding energy read?
Its Binding energy is 10.7 kcal/mol.

For CN1CCC(=C2c3ccccc3CCc3sccc32)CC1 [PIZOTYLINE], which Binding energy is on record?
Its Binding energy is 13 kcal/mol.

For COc1cc2nc(N3CCN(C(=O)c4ccco4)CC3)nc(N)c2cc1OC [PRAZOSIN], which Binding energy is on record?
The Binding energy was 13.1 kcal/mol.

With CC(Cc1ccccc1)NCCC(c1ccccc1)c1ccccc1 (stereo not drawn) [PRENYLAMINE] as the molecule, how does the Binding energy read?
Its Binding energy is 8.2 kcal/mol.

For CC(=O)[C@H]1CC[C@H]2[C@@H]3CCC4=CC(=O)CC[C@]4(C)[C@H]3CC[C@]12C [PROGESTERONE], which Binding energy is on record?
The Binding energy was 10.5 kcal/mol.

Which Binding energy does the source give for CC(C)NCC(O)COc1cccc2ccccc12 (stereo not drawn) [PROPRANOLOL] here?
Its Binding energy is 12.8 kcal/mol.

With CNCCCC1c2ccccc2C=Cc2ccccc21 [PROTRIPTYLINE] as the molecule, how does the Binding energy read?
The Binding energy was 10.8 kcal/mol.

With COc1ccc(CN(CCN(C)C)c2ccccn2)cc1 [PYRILAMINE] as the molecule, how does the Binding energy read?
The Binding energy was 12.7 kcal/mol.

Which Binding energy does the source give for CCc1nc(N)nc(N)c1-c1ccc(Cl)cc1 [PYRIMETHAMINE] here?
Its Binding energy is 9.7 kcal/mol.

For CC(CN1CCOCC1)C(C(=O)N1CCCC1)(c1ccccc1)c1ccccc1 (stereo not drawn) [RACEMORAMIDE], which Binding energy is on record?
The Binding energy was 12.3 kcal/mol.

Which Binding energy does the source give for CN1[C@@H]2C[C@@H](OC(=O)[C@H](CO)c3ccccc3)C[C@H]1[C@@H]1O[C@@H]12 [SCOPOLAMINE] here?
Its Binding energy is 12.9 kcal/mol.

With NCCc1c[nH]c2ccc(O)cc12 [SEROTONIN] as the molecule, how does the Binding energy read?
The Binding energy was 8.9 kcal/mol.

For O=C(CCCN1CCC2(CC1)C(=O)NCN2c1ccccc1)c1ccc(F)cc1 [SPIPERONE], which Binding energy is on record?
Its Binding energy is 14 kcal/mol.

With CC/C(=C(\c1ccccc1)c1ccc(OCCN(C)C)cc1)c1ccccc1 [TAMOXIFEN] as the molecule, how does the Binding energy read?
Its Binding energy is 12.3 kcal/mol.

For C[N+](C)(C)C [TETRAMETHYLAMMONIUM ION], which Binding energy is on record?
Its Binding energy is 3.6 kcal/mol.

With CSc1ccc2c(c1)N(CCC1CCCCN1C)c1ccccc1S2 (stereo not drawn) [THIORIDAZINE] as the molecule, how does the Binding energy read?
The Binding energy was 11 kcal/mol.

For Cc1csc(Cl)c1NC1=NCCN1 [TIAMENIDINE], which Binding energy is on record?
Its Binding energy is 11.8 kcal/mol.

For CC(C)(C)NC[C@H](O)COc1nsnc1N1CCOCC1 [TIMOLOL], which Binding energy is on record?
The Binding energy was 13 kcal/mol.

For O=C(O)Cc1cc(I)c(Oc2ccc(O)c(I)c2)c(I)c1 [TIRATRICOL], which Binding energy is on record?
The Binding energy was 9.3 kcal/mol.

For COc1cc(Cc2cnc(N)nc2N)cc(OC)c1OC [TRIMETHOPRIM], which Binding energy is on record?
Its Binding energy is 11.5 kcal/mol.

For Cc1ccc(/C(=C\CN2CCCC2)c2ccccn2)cc1 [TRIPROLIDINE], which Binding energy is on record?
The Binding energy was 13.6 kcal/mol.

For NCCc1c[nH]c2ccccc12 [TRYPTAMINE], which Binding energy is on record?
The Binding energy was 7.9 kcal/mol.

Which Binding energy does the source give for CCCC(CCC)C(=O)O [VALPROIC ACID] here?
The Binding energy was 6.1 kcal/mol.

Which Binding energy does the source give for CC(=O)CC(c1ccccc1)c1c(O)c2ccccc2oc1=O (stereo not drawn) [WARFARIN] here?
Its Binding energy is 6.9 kcal/mol.

With Cc1cccc(C)c1N=C1NCCCS1 [XYLAZINE] as the molecule, how does the Binding energy read?
Its Binding energy is 11.3 kcal/mol.

Which Binding energy does the source give for COC(=O)[C@@H]1[C@H]2C[C@H]3c4[nH]c5ccccc5c4CCN3C[C@@H]2CC[C@@H]1O [YOHIMBINE] here?
The Binding energy was 11.9 kcal/mol.

For BIBROCATHOL, which Binding energy is on record?
Its Binding energy is 10.7 kcal/mol.

Which Binding energy does the source give for FLUPENTIXOL here?
The Binding energy was 11.5 kcal/mol.
